According to publication PMC9026286, “Bacterial Lipodepsipeptides and Some of Their Derivatives and Cyclic Dipeptides as Potential Agents for Biocontrol of Pathogenic Bacteria and Fungi of Agrarian Plants” (Journal of Agricultural and Food Chemistry, 2022):
Values after ≈ are worked out from the molar mass of the structure shown. Where a SMILES comes first, the peptide text is derived from it. Bridges are numbered along the chain shown (N, C = ends). [ ]: non-standard residue; d: D form. The star is where a group is joined. ξ: configuration not given here. d(aThr) = C[C@@H](O)[C@@H](N)C(=O)O; Octanoyl(3-OH) = CCCCCC(O)CC(=O)*; X1 = CCCCCC(CC(=O)*)OC(C)=O; dDab = NCC[C@@H](N)C(=O)O; hSer = N[C@@H](CCO)C(=O)O; ξQ = NC(=O)CCC(N)C(=O)O; Dhb = C/C=C(\N)C(=O)O; ξL = CC(C)CC(N)C(=O)O; ξDab = NCCC(N)C(=O)O; ξK = NCCCCC(N)C(=O)O; ξT = CC(O)C(N)C(=O)O; ξV = CC(C)C(N)C(=O)O; ξAbu = CCC(N)C(=O)O; ξP = O=C(O)C1CCCN1; ξS = NC(CO)C(=O)O

Tests used:
[1] = system: Colletotrichum truncatum 17-5-5; settings: strain 17-5-5; lipodepsipeptides, serial dilutions from 0.1 to 1 μg/mL, potato dextrose broth, 24-well plates, 28 °C, 7 days; lowest concentration with no visible growth; triplicate
Method: The antifungal activity was performed in 24-well culture plates according to the method previously described[31] with some modification. Serial dilutions of different lipodepsipeptides (from 0.1 to 1 μg/mL) and cyclic dipeptides (from 10 to 1000 μg/mL) were dissolved in a volume of 500 μL of ultrapure Milli-Q and finally inoculated with 500 μL of 2× potato dextrose broth (Difco) containing the Colletotrichum truncatum plug of 4 mm × 4 mm diameter. As a control, C. truncatum plugs (4 mm × 4 mm) were grown in 2× PD broth diluted with 500 μL of ultrapure Milli-Q water, and the plates were incubated at 28 °C for 7 days. The MIC was measured as the lowest concentration of antifungal agent at which there was no visible growth of the fungus after incubation. The experiment was performed in triplicate.

[2] = system: all the bacteria and the fungus tested; assay: Antimicrobial and antifungal tests, MIC ranges summarised over the panel; format: cell-based; settings: for reduction of activity with respect to that of 9: compared with compound 9
Method: (§1) The experiment was performed in triplicate.
as §1

Phytophthora infestans = settings: cited from earlier work
Plasmopara viticola = settings: cited from earlier work
Bacillus megaterium QMB = settings: 48 h
Method: (§2) Bacteria were grown in LB broth at 25 or 37 °C overnight at 150 rpm. A total of 500 μL of a suspension containing about 10^8 cfu mL^–1 were added to 3 mL of LB soft agar (0.7%) and poured onto plates containing 7 mL of LB broth with agar 1.8%. After agar gelification, 10 μL drops of serial dilutions of different lipodepsipeptides and their derivatives (from 0.1 to 1 μg/mL) and cyclic dipeptides (from 10 to 1000 μg/mL) were tested. After 24 ± 48 h of incubation at 25 or 37 °C, the end serial dilution inhibiting the growth of the bacteria in the area of application of 10 μL solutions was recorded. The plates containing the bacteria alone were used as a control. The experiment was performed in triplicate.

Bacillus subtilis PY79 = settings: PY79, 48 h
Method: as §2

Rhodococcus fascians LMG = settings: cited from earlier work
[3] = lipodepsipeptides and derivatives, range over all the bacteria and the fungus tested (summary of Table 1)
[4] = 2,5-diketopiperazines, range over all microorganisms tested (summary of Table 2)

`C/C=C(\NC(=O)[C@H](NC(=O)[C@H](CC(C)C)NC(=O)[C@@H](CCC(N)=O)NC(=O)[C@@H](NC(=O)[C@H](NC(=O)[C@@H](CC(C)C)NC(=O)[C@@H](CO)NC(=O)[C@H](NC(=O)[C@@H](CC(C)C)NC(=O)[C@@H](CO)NC(=O)[C@H]1CCCN1C(=O)/C(=C/C)NC(=O)CC(O)CCCCC)C(C)C)C(C)C)C(C)C)C(C)C)C(=O)N[C@H]1C(=O)N[C@@H]([C@@H](C)CC)C(=O)N[C@@H](CCO)C(=O)N[C@H](CCN)C(=O)N[C@@H](CCCCN)C(=O)O[C@@H]1C` (stereo partly drawn) [compound 1, tolaasin I] ({Octanoyl(3-OH)}-[Dhb][dP][dS][dL][dV][dS][dL][dV]V[dQ]L[dV][Dhb][d(aThr)]I[hSer][dDab]K; ester 14-C) showed an MIC [1] of 0.6 µg/mL (≈ 0.302 µM).

Work on `C/C=C(\NC(=O)C(NC(=O)C(CC(C)C)NC(=O)C(CCC(N)=O)NC(=O)C(NC(=O)C(NC(=O)C(CC(C)C)NC(=O)C(CO)NC(=O)C(NC(=O)C(CC(C)C)NC(=O)C(CO)NC(=O)C1CCCN1C(=O)/C(=C/C)NC(=O)CC(O)CCCCC)C(C)C)C(C)C)C(C)C)C(C)C)C(=O)NC1C(=O)N[C@@H](CC(C)C)C(=O)N[C@@H](CCO)C(=O)NC(CCN)C(=O)NC(CCCCN)C(=O)OC1C` (stereo partly drawn) [compound 7, tolaasin D] ({Octanoyl(3-OH)}-[Dhb][ξP][ξS][ξL][ξV][ξS][ξL][ξV][ξV][ξQ][ξL][ξV][Dhb][ξT]L[hSer][ξDab][ξK]; ester 14-C) yielded an MIC range [2, 3] of 0.1 to 0.2 µg/mL and an MIC [1] of 0.2 µg/mL (≈ 0.101 µM).

For `O=C1N[C@@H](Cc2ccc(O)cc2)C(=O)N2CCC[C@@H]12` [compound 9, cyclo(L-Pro-L-Tyr)], the “antifungal activity against Phytophthora infestans” value (Phytophthora infestans) is listed as “showed antifungal activity”, the MIC range [2, 4] is listed as 15 to 20 µg/mL and the “antifungal activity against Plasmopara viticola” value (Plasmopara viticola) is listed as “showed antifungal activity”.

With `CC(C)C[C@@H]1NC(=O)[C@@H]2CCCN2C1=O` [compound 13, cyclo(L-Pro-L-Leu)] the “reduction of activity with respect to that of 9” value ([2]; 2,5-diketopiperazines) was 40–50 times, the MIC (Bacillus megaterium QMB) was 30 µg/mL (≈ 143 µM) and the MIC (Bacillus subtilis PY79) was 15 µg/mL (≈ 71.3 µM).

With `O=C1N[C@@H](Cc2ccc(O)cc2)C(=O)N2CCC[C@H]12` [compound 14, cyclo(D-Pro-L-Tyr)] the “reduction of activity with respect to that of 9” value ([2]; 2,5-diketopiperazines) was 50–60 times.

With `C/C=C(\NC(=O)[C@H](NC(=O)[C@H](CC(C)C)NC(=O)[C@@H](CCC(N)=O)NC(=O)[C@@H](NC(=O)[C@H](NC(=O)[C@@H](CC(C)C)NC(=O)[C@@H](COC(C)=O)NC(=O)[C@H](NC(=O)[C@@H](CC(C)C)NC(=O)[C@@H](COC(C)=O)NC(=O)[C@H]1CCCN1C(=O)/C(=C/C)NC(=O)CC(CCCCC)OC(C)=O)C(C)C)C(C)C)C(C)C)C(C)C)C(=O)N[C@H]1C(=O)N[C@@H]([C@@H](C)CC)C(=O)N[C@@H](CCOC(C)=O)C(=O)N[C@H](CCNC(C)=O)C(=O)N[C@@H](CCCCNC(C)=O)C(=O)O[C@@H]1C` (stereo partly drawn) [compound 15, hexacetyl tolaasin I] (X1-[Dhb][dP][dS](Ac)[dL][dV][dS](Ac)[dL][dV]V[dQ]L[dV][Dhb][d(aThr)]I[hSer](Ac)[dDab](Ac)K(Ac); ester 14-C) the MIC range ([2]; lipodepsipeptides and derivatives, range against the pathogenic bacteria and C. truncatum only) was 0.7 to 1 µg/mL, the MIC range [2, 3] was 0.7 to 1 µg/mL and the MIC [1] was 1 µg/mL (≈ 0.446 µM).

With `CCCCCC(O)CC(=O)NC(CC)C(=O)N1CCC[C@@H]1C(=O)N[C@H](CO)C(=O)N[C@H](CC(C)C)C(=O)N[C@@H](C(=O)N[C@H](CO)C(=O)N[C@H](CC(C)C)C(=O)N[C@@H](C(=O)N[C@H](C(=O)N[C@H](CCC(N)=O)C(=O)N[C@@H](CC(C)C)C(=O)N[C@@H](C(=O)NC(CC)C(=O)N[C@H]1C(=O)N[C@@H]([C@@H](C)CC)C(=O)N[C@@H](CCO)C(=O)N[C@H](CCN)C(=O)N[C@@H](CCCCN)C(=O)O[C@@H]1C)C(C)C)C(C)C)C(C)C)C(C)C` (stereo partly drawn) [compound 16, tetrahydro tolaasin I] ({Octanoyl(3-OH)}-[ξAbu][dP][dS][dL][dV][dS][dL][dV]V[dQ]L[dV][ξAbu][d(aThr)]I[hSer][dDab]K; ester 14-C) the MIC range [2, 3] was 0.2 to 3 µg/mL and the MIC [1] was 3 µg/mL (≈ 1.51 µM).

WLIP methyl ester [WILP methyl ester] gave an MIC [1] of 5 µg/mL.

For cyclo(L-Pro-L-Val) [compound 11], the MIC range [2, 4] is listed as “not toxic” and the “toxicity against Rhodococcus fascians” value (Rhodococcus fascians LMG) is listed as “toxicity similar to that of chloramphenicol”.
